System: total yeast genomic DNA
Test: Yeast proteome chip probed with labeled genomic DNA
Type: binding
Settings: Cy3-labeled genomic DNA, visual inspection
Source text: Protein-DNA and protein-RNA interactions are important for many fundamental biological functions such as transcription regulation, chromosome segregation and maintenance, and RNA transport and processing (Williamson, 2000, Nat. Struct. Biol. 7(10):834-7). To explore the possibility of using a proteome chip to identify proteins that bind to DNA or RNA molecules, total yeast genomic DNA was labeled using Cy3-CTP and Klenow fragment, and polyA^+ was labeled using a biotinylated psoralen-derivative (31). Each probe was incubated with a different proteome chip (FIG. 3A).
The protein-nucleic acid interaction was assayed as follows. The nucleic acid robes were labeled as described by Winzeler et al. (1999, Science 285:901). Blocked proteome chips were washed three to five times in PBS buffer, and the extra liquid on the glass surface was removed by tapping the slides vertically on a KIMWIPE™. 200 μl of labeled nuclei acid probe ([…] poly(dC/dG); 100-300 mM NaCl; 50-300 mM HEPES, pH 7.0-8.5; 10 mM MgCl2) was added to the proteome chip and immediately covered by a hydrophobic plastic cover slip (GRACE BIO-LABS™, USA). After trapped air bubbles were removed, the chip was incubated in a humidity chamber in the dark at room temperature (“RT”) for one hour. To remove the cover slip, the chip was immersed into large volume of PBS buffer(>50 ml), so that the slip would float away. […]

Gcd11p: gamma subunit of translation initiation factor eIF2
binding of genomic DNA probe: tested positive

— patent US20050182242A1, “Global analysis of protein activities using proteome chips” (priority 2001, published 2005)
